Measurements published in the NIST ThermoML archive (doi:10.1016/j.jct.2015.10.001).

Experiment: mn = molality of the nth substance listed, in mol/kg
Conditions: 100 kPa, Liquid; for electrical conductivity: Direct current cell with electrodes; for mass density: Vibrating tube method; for viscosity: Capillary tube (Ostwald / Ubbelohde) method

CCCCn1cc[n+](C)c1.O=C([O-])c1ccccc1O [1-butyl-3-methylimidazolium salicylate] + O
Conditions	electrical conductivity [S/m]	mass density [kg/m3]	viscosity [mPa·s]
303.15 K, m1 = 0.00579	–	995.88	–
303.15 K, m1 = 0.007	–	995.93	–
303.15 K, m1 = 0.008	0.0559	–	–
303.15 K, m1 = 0.00801	–	995.97	–
303.15 K, m1 = 0.01	0.0659	–	–
303.15 K, m1 = 0.01056	–	996.07	–
303.15 K, m1 = 0.01278	–	996.17	–
303.15 K, m1 = 0.0144	0.0871	–	–
303.15 K, m1 = 0.0158	–	996.29	–
303.15 K, m1 = 0.01707	–	996.35	–
303.15 K, m1 = 0.02056	–	996.5	–
303.15 K, m1 = 0.0221	0.118	–	–
303.15 K, m1 = 0.02523	–	996.7	–
308.15 K, m1 = 0.001	0.0099	–	–
308.15 K, m1 = 0.0037	0.0328	–	–
308.15 K, m1 = 0.00579	–	994.27	–
308.15 K, m1 = 0.0058	–	–	0.765
308.15 K, m1 = 0.0062	0.0501	–	–
308.15 K, m1 = 0.007	–	994.32	–
308.15 K, m1 = 0.0071	–	–	0.77
308.15 K, m1 = 0.0072	0.057	–	–
308.15 K, m1 = 0.008	0.0623	–	–
308.15 K, m1 = 0.00801	–	994.36	–
308.15 K, m1 = 0.01	0.0745	–	–
308.15 K, m1 = 0.01056	–	994.46	–
308.15 K, m1 = 0.0117	–	–	0.787
308.15 K, m1 = 0.01278	–	994.55	–
308.15 K, m1 = 0.0144	0.0986	–	–
308.15 K, m1 = 0.0158	–	994.68	–
308.15 K, m1 = 0.01707	–	994.74	–
308.15 K, m1 = 0.0205	–	–	0.811
308.15 K, m1 = 0.02056	–	994.89	–
308.15 K, m1 = 0.0221	0.133	–	–
308.15 K, m1 = 0.02523	–	995.09	–
308.15 K, m1 = 0.0353	–	–	0.845
308.15 K, m1 = 0.0384	–	–	0.851
308.15 K, m1 = 0.0552	–	–	0.882
308.15 K, m1 = 0.0765	–	–	0.916
313.15 K, m1 = 0.001	0.011	–	–
313.15 K, m1 = 0.0037	0.0362	–	–
313.15 K, m1 = 0.00579	–	992.45	–
313.15 K, m1 = 0.0058	–	–	0.701
313.15 K, m1 = 0.0062	0.0551	–	–
313.15 K, m1 = 0.007	–	992.5	–
313.15 K, m1 = 0.0071	–	–	0.707
313.15 K, m1 = 0.0072	0.0629	–	–
313.15 K, m1 = 0.008	0.0686	–	–
313.15 K, m1 = 0.00801	–	992.54	–
313.15 K, m1 = 0.01	0.0826	–	–
313.15 K, m1 = 0.01056	–	992.64	–
313.15 K, m1 = 0.0117	–	–	0.723
313.15 K, m1 = 0.01278	–	992.73	–
313.15 K, m1 = 0.0144	0.111	–	–
313.15 K, m1 = 0.0158	–	992.86	–
313.15 K, m1 = 0.01707	–	992.91	–
313.15 K, m1 = 0.0205	–	–	0.749
313.15 K, m1 = 0.02056	–	993.06	–
313.15 K, m1 = 0.0221	0.149	–	–
313.15 K, m1 = 0.02523	–	993.26	–
313.15 K, m1 = 0.0353	–	–	0.783
313.15 K, m1 = 0.0384	–	–	0.789
313.15 K, m1 = 0.0552	–	–	0.819
313.15 K, m1 = 0.0765	–	–	0.853
